pEC50, pIC50: −log10 of the molar value. Active and inactive are the calls of the source. No cut-off for these calls is given here.
Legend:
[1] = target: T1, Endothelial PAS domain-containing protein 1 (Homo sapiens, UniProt Q99814)
[2] = target: T1, Endothelial PAS domain-containing protein 1; remark: listed apart in the source
[3] = Oral bioavailability in CD1 mouse at 10 mg/kg by UPLC analysis; assay type: ADME, organism-based; conditions: in vivo
[4] = Volume of distribution at steady state in Sprague-Dawley rat at 3 mg/kg, iv by UPLC analysis; assay type: ADME, organism-based; conditions: in vivo, read-out: Vdss
[5] = Oral bioavailability in Sprague-Dawley rat at 10 mg/kg administered via gavage by UPLC analysis; assay type: ADME, organism-based; conditions: in vivo
[6] = Clearance in CD1 mouse at 3 mg/kg, iv by UPLC analysis; assay type: ADME, organism-based; conditions: in vivo
786-0 [7] = assay: Antitumor activity against human 786-O cells xenografted in SCID/Biege mouse assessed as tumor regression at 10 mg/kg, po bid for 21 days; assay type: functional, organism-based
786-0 [8] = assay: In vivo inhibition of HIF-2alpha in SCID/Biege mouse xenografted with human 786-O cells assessed as reduction in tumor derived VEGFA protein levels at 10 mg/kg, po bid for 3 days and measured after 12 hrs post last dose by ELISA; assay type: functional, organism-based
[9] = Half life in CD1 mouse at 10 mg/kg, po by UPLC analysis; assay type: ADME, organism-based; conditions: in vivo
[10] = Apparent permeability across apical to basolateral side in MDCK-MDR1 cells at 1 uM after 1 hr by LC/MS/MS analysis; assay type: ADME, cell-based, Canis lupus familiaris; conditions: dog
[11] = AUCt in Sprague-Dawley rat at 10 mg/kg, po via gavage by UPLC analysis; assay type: ADME, organism-based; conditions: in vivo
[12] = Half life in Sprague-Dawley rat at 10 mg/kg, po via gavage by UPLC analysis; assay type: ADME, organism-based; conditions: in vivo
Mus musculus [13] = assay: Toxicity in SCID/Biege mouse xenografted with human 786-O cells assessed as effect on body weight at 10 mg/kg, po bid for 21 days; assay type: organism-based; conditions: in vivo, 504 h
Mus musculus [14] = assay: In vivo inhibition of HIF-2alpha in SCID/Biege mouse xenografted with human 786-O cells assessed as reduction in VEGFA mRNA levels at 10 mg/kg, po bid for 3 days and measured after 12 hrs post last dose by qRT-PCR analysis; assay type: functional, organism-based
[15] = Volume of distribution at steady state in CD1 mouse at 3 mg/kg, iv by UPLC analysis; assay type: ADME, organism-based; conditions: in vivo, read-out: Vdss
[16] = AUCt in CD1 mouse at 10 mg/kg, po by UPLC analysis; assay type: ADME, organism-based; conditions: in vivo
[17] = Clearance in Sprague-Dawley rat at 3 mg/kg, iv by UPLC analysis; assay type: ADME, organism-based; conditions: in vivo
Mus musculus [18] = assay: Minimum drug level in SCID/Biege mouse xenografted with human 786-O cells at 10 mg/kg, po bid for 3 days and measured after 12 hrs post last dose by LC-MS/MS analysis; assay type: ADME, organism-based; conditions: in vivo
[19] = Protein binding in mouse plasma at 10 uM after 4 hrs by LC-MS/MS analysis; assay type: ADME, cell-free; conditions: read-out: PPB (converted)
Mus musculus [20] = assay: Toxicity in SCID/Biege mouse xenografted with human 786-O cells assessed as morbidity at 10 mg/kg, po bid for 21 days; assay type: organism-based; conditions: in vivo, 504 h
[21] = Intrinsic clearance in mouse liver microsomes at 1 uM measured up to 30 mins by LC-MS/MS analysis; assay type: ADME, microsome; conditions: read-out: CLH
[22] = Plasma concentration in mouse after 12 hrs; assay type: ADME, cell-free
Mus musculus [23] = assay: In vivo inhibition of HIF-2alpha in SCID/Biege mouse xenografted with human 786-O cells assessed as reduction in CCND1 mRNA levels at 10 mg/kg, po bid for 3 days and measured after 12 hrs post last dose by qRT-PCR analysis; assay type: functional, organism-based
Mus musculus [24] = assay: Toxicity in SCID/Biege mouse xenografted with human 786-O cells assessed as mortality at 10 mg/kg, po bid for 21 days; assay type: organism-based; conditions: in vivo, 504 h
[25] = Efflux ratio of apparent permeability in MDCK-MDR1 cells at 1 uM after 1 hr by LC/MS/MS analysis; assay type: ADME, cell-based, Canis lupus familiaris; conditions: dog
[26] = target: T1, Endothelial PAS domain-containing protein 1; assay: Antagonist activity at HIF-2alpha in human 786-O cells assessed as reduction in VEGFA concentration after 24 hrs by ELISA; assay type: cell-based
[27] = target: T1, Endothelial PAS domain-containing protein 1; assay: Antagonist activity at HIF-2alpha in human 786-O cells assessed as free plasma adjusted EC50 for reduction in VEGFA concentration after 24 hrs by ELISA; assay type: cell-based
Rattus norvegicus = assay: Drug level in Sprague-Dawley rat treated with 10 mg/kg, po (R)-3-((4-(Difluoromethyl)-2,2-difluoro-3-hydroxy-1,1-dioxido-2,3-dihydrobenzo[b]thiophen-5-yl)oxy)-5-fluorobenzonitrile assessed as compound formation by UPLC analysis; assay type: ADME, organism-based; conditions: in vivo

T1 sequence (Q99814 whole entry, the tested form may be a part): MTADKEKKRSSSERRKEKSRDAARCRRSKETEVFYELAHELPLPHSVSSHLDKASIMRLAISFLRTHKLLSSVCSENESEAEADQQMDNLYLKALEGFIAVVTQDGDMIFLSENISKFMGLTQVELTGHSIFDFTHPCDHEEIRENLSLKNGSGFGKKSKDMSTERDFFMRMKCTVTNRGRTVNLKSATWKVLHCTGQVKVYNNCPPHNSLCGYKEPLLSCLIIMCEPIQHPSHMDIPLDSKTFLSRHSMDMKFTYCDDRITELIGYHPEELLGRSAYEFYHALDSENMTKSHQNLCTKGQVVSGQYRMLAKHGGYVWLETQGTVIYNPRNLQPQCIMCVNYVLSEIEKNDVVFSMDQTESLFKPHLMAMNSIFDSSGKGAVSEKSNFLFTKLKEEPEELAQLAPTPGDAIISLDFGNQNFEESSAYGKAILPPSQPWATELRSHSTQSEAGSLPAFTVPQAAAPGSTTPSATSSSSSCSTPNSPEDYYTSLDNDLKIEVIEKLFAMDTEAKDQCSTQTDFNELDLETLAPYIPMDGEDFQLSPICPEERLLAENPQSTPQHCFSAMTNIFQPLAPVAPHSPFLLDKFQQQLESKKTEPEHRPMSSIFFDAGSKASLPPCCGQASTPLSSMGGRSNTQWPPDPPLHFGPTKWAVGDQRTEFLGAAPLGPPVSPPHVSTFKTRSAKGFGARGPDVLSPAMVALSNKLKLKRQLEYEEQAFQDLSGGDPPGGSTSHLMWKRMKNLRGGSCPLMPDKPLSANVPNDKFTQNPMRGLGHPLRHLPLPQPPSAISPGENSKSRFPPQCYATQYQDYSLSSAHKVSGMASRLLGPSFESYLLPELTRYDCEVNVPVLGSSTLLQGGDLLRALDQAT

SMILES: O=S1(=O)c2ccc(Oc3cc(F)cc(Cl)c3)c(C(F)F)c2C(O)C1(F)F (stereo unspecified)
- pEC50 [1]: 7.77

SMILES: Cc1c(Oc2cc(F)cc(Cl)c2)ccc2c1C(O)C(F)(F)S2(=O)=O (stereo unspecified)
- pEC50 [1]: 6.47
- pIC50 [2]: 7.70

SMILES: CC1(C)C(O)c2c(ccc(Oc3cc(F)cc(Cl)c3)c2Br)S1(=O)=O (stereo unspecified)
- pIC50 [2]: 4.71

SMILES: N#Cc1cc(F)cc(Oc2ccc(S(=O)(=O)C(F)(F)F)c3c2CC(F)(F)[C@H]3O)c1
- pEC50 [1]: > 8.30

SMILES: O=S1(=O)c2ccc(Oc3cc(F)cc(Cl)c3)cc2C(O)C1(F)F (stereo unspecified)
- pIC50 [2]: 5.96

SMILES: CS(=O)(=O)c1ccc(Oc2cc(F)cc(Cl)c2)c(Br)c1
- pIC50 [2]: 5.36

SMILES: NCc1c(S(=O)(=O)C(F)F)ccc(Oc2cc(F)cc(Cl)c2)c1Br
- pIC50 [2]: 6.15

SMILES: N#Cc1cc(S(=O)(=O)C(F)(F)F)ccc1Oc1cc(F)cc(Cl)c1
- pEC50 [1]: 4.94
- pIC50 [2]: 7.47

SMILES: N#Cc1cc(F)cc(Oc2ccc(S(=O)(=O)C(F)F)c3c2CC(F)(F)[C@H]3O)c1
- bioavailability [3]: 67%
- Vd [4]: 5.55 L/kg
- bioavailability [5]: 6%
- clearance [6]: 34.3 mL/min/kg
- Activity (786-0 [7]): Active
- inhibition (786-0 [8]): Active
- half-life [9]: 7.3 h
- Papp A→B at 1 h, 1 µM [10]: 2.84 ×10⁻⁶ cm/s
- AUC(0-t) [11]: 0.39 µM·h
- half-life [12]: 5.4 h
- Activity (Mus musculus [13]): Non-Toxic
- inhibition (Mus musculus [14]): Active
- Vd [15]: 7.4 L/kg
- AUC(0-t) [16]: 7.3 µM·h
- clearance [17]: 57.7 mL/min/kg
- Drug uptake (Mus musculus [18]): Active
- fraction unbound at 4 h, 10 µM [19]: 0.06
- Activity (Mus musculus [20]): Non-Toxic
- CLint scaled at 1 µM [21]: 32.2 mL/min/kg
- concentration at 12 h [22]: 380 nM
- inhibition (Mus musculus [23]): Active
- Activity (Mus musculus [24]): Non-Toxic

SMILES: O=S(=O)(c1ccc(Oc2cc(F)cc(Cl)c2)c(Br)c1)C(F)F
- pEC50 [1]: 5.66
- pIC50 [2]: 6.74

SMILES: O=S1(=O)c2ccc(Oc3cc(F)cc(Cl)c3)c(C(F)(F)F)c2C(O)C1(F)F (stereo unspecified)
- pEC50 [1]: 7.00

SMILES: O=S1(=O)CC(O)c2c1ccc(Oc1cc(F)cc(Cl)c1)c2Br (stereo unspecified)
- pEC50 [1]: 5.14
- pIC50 [2]: 5.62

SMILES: O=S(=O)(c1ccc(Oc2cncc(Cl)c2)c2c1[C@H](O)C(F)(F)C2)C(F)F
- bioavailability [3]: 101%
- clearance [6]: 58.2 mL/min/kg
- Activity (786-0 [7]): inactive
- inhibition (786-0 [8]): inactive
- half-life [9]: 5.3 h
- Papp A→B at 1 h, 1 µM [10]: 2.79 ×10⁻⁶ cm/s
- Activity (Mus musculus [13]): Non-Toxic
- inhibition (Mus musculus [14]): inactive
- Vd [15]: 25 L/kg
- AUC(0-t) [16]: 5.44 µM·h
- Drug uptake (Mus musculus [18]): Not Active
- fraction unbound at 4 h, 10 µM [19]: 0.06
- Activity (Mus musculus [20]): Non-Toxic
- CLint scaled at 1 µM [21]: 20.1 mL/min/kg
- concentration at 12 h [22]: 560 nM
- inhibition (Mus musculus [23]): inactive
- Activity (Mus musculus [24]): Non-Toxic

SMILES: O=S(=O)(c1ccc(Oc2cc(F)cc(Cl)c2)c(Cl)c1)C(F)(F)F
- pEC50 [1]: 5.47
- pIC50 [2]: 6.85

SMILES: NC(=O)c1cc(S(=O)(=O)C(F)(F)F)ccc1Oc1cc(F)cc(Cl)c1
- pIC50 [2]: 4.65

SMILES: N#Cc1cc(F)cc(Oc2ccc(S(=O)(=O)C(F)F)c(C(=O)O)c2C(F)F)c1
- pIC50 [2]: < 4.00

SMILES: O=[N+]([O-])c1cc(C(F)(F)F)ccc1Nc1cc(F)cc(Cl)c1
- pIC50 [2]: 6.55

SMILES: COC(=O)c1cc(S(=O)(=O)C(F)(F)F)ccc1Oc1cc(F)cc(Cl)c1
- pIC50 [2]: 4.28

SMILES: O=[N+]([O-])c1cc(S(=O)(=O)C(F)(F)F)ccc1Oc1cc(F)cc(Cl)c1
- pIC50 [2]: 7.49

SMILES: N#Cc1cc(F)cc(Oc2ccc(S(=O)(=O)CF)c3c2CC(F)(F)[C@H]3O)c1
- pEC50 [1]: 8.05
- efflux ratio at 1 h, 1 µM [25]: 1.04
- bioavailability [3]: 91%
- Vd [4]: 6.15 L/kg
- bioavailability [5]: 32%
- pEC50 [26]: 7.70
- clearance [6]: 32.3 mL/min/kg
- Activity (786-0 [7]): Active
- inhibition (786-0 [8]): Active
- half-life [9]: 5.5 h
- Papp A→B at 1 h, 1 µM [10]: 2.73 ×10⁻⁶ cm/s
- pEC50 [27]: 6.74
- AUC(0-t) [11]: 2.14 µM·h
- half-life [12]: 2.9 h
- Activity (Mus musculus [13]): Non-Toxic
- inhibition (Mus musculus [14]): Active
- Vd [15]: 12.6 L/kg
- AUC(0-t) [16]: 9.46 µM·h
- clearance [17]: 57.6 mL/min/kg
- Drug uptake (Mus musculus [18]): Active
- fraction unbound at 4 h, 10 µM [19]: 0.11
- Activity (Mus musculus [20]): Non-Toxic
- CLint scaled at 1 µM [21]: 26.9 mL/min/kg
- concentration at 12 h [22]: 1100 nM
- inhibition (Mus musculus [23]): Active
- Activity (Mus musculus [24]): Non-Toxic

SMILES: O=S1(=O)CCC(O)c2c1ccc(Oc1cc(F)cc(F)c1)c2C(F)F (stereo unspecified)
- pIC50 [2]: 5.49

SMILES: CS(=O)(=O)c1ccc(Oc2cc(F)cc(C#N)c2)c2c1C(O)C(F)(F)CC2 (racemic)
- pIC50 [2]: 5.44

SMILES: O=C(O)c1cc(S(=O)(=O)C(F)(F)F)ccc1Oc1cc(F)cc(Cl)c1
- pIC50 [2]: 4.35

SMILES: O=S1(=O)c2ccc(Oc3cc(F)cc(Cl)c3)c(Br)c2C(O)C1(F)F (stereo unspecified)
- pEC50 [1]: 7.37
- pIC50 [2]: > 8.30

SMILES: O=[N+]([O-])c1cc(S(=O)(=O)CF)ccc1Nc1cc(F)cc(Cl)c1
- pIC50 [2]: 6.55

SMILES: COCc1c(S(=O)(=O)C(F)F)ccc(Oc2cc(F)cc(Cl)c2)c1Cl
- pIC50 [2]: 5.38

SMILES: O=[N+]([O-])c1c(Nc2cc(F)cc(Cl)c2)ccc2nonc12
- pIC50 [2]: 6.31

SMILES: O=S1(=O)c2ccc(Oc3cncc(Cl)c3)c(C(F)F)c2C(O)C1(F)F (stereo unspecified)
- pEC50 [1]: 6.20
- pIC50 [2]: 6.46

SMILES: O=[N+]([O-])c1cc(S(=O)(=O)C(F)F)ccc1Nc1cc(F)cc(Cl)c1
- pIC50 [2]: 7.80

SMILES: N#Cc1c(Oc2cc(F)cc(Cl)c2)ccc2c1C(O)C(F)(F)S2(=O)=O (stereo unspecified)
- pEC50 [1]: 5.04
- pIC50 [2]: 7.31

SMILES: N#Cc1cncc(Oc2ccc3c(c2C(F)F)C(O)C(F)(F)S3(=O)=O)c1 (stereo unspecified)
- pEC50 [1]: 6.74
- pIC50 [2]: 6.85

SMILES: O=S(=O)(c1ccc(Oc2cc(F)cc(Cl)c2)c2c1C(O)C(F)(F)C2)C(F)F (racemic)
- pEC50 [1]: 7.70
- pIC50 [2]: > 8.30

SMILES: O=S(=O)(c1ccc(Oc2cc(F)cc(Cl)c2)c(CO)c1)C(F)(F)F
- pIC50 [2]: 5.92

SMILES: O=S(=O)(c1ccc(Oc2cc(F)cc(Cl)c2)c(Br)c1)C(F)(F)F
- pEC50 [1]: 5.43
- pIC50 [2]: 6.77

SMILES: N#Cc1cc(F)cc(Oc2ccc3c(c2C(F)F)C(=O)C(F)(F)S3(=O)=O)c1
- Drug uptake (Rattus norvegicus): Active

SMILES: CC(=O)NCc1c(S(=O)(=O)C(F)F)ccc(Oc2cc(F)cc(Cl)c2)c1Br
- pIC50 [2]: 4.74

SMILES: CC(O)c1ccc(Nc2cc(F)cc(Cl)c2)c([N+](=O)[O-])c1 (stereo unspecified)
- pIC50 [2]: 4.90

SMILES: CNS(=O)(=O)c1ccc(Nc2cc(F)cc(Cl)c2)c([N+](=O)[O-])c1
- pIC50 [2]: 5.38
